{"source": "paper PMC4869123", "about": "(Scientific Reports, 2016)", "key": {"murine IL-17A": {"biological_target": "T1, murine IL-17A (Mus musculus, UniProt Q62386)", "T1 construct": "host or cells: added to MLE-12 mouse epithelial cells (ATCC CRL2110)", "T1 sequence (Q62386 26-158)": "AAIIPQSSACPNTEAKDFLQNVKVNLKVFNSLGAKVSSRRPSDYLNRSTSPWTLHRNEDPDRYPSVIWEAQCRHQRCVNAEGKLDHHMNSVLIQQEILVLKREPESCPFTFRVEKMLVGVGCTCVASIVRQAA", "experiment": "Murine functional cell assay, MLE-12 mouse epithelial cells, KC production", "type": "cell-based", "experimental": "[…]. For inhibitor screen, human BJ fibroblast cells (ATCC CRL2522) (American Type Culture Collection, VA) were used. For mouse cell based assay MLE-12 mouse epithelial cells (ATCC CRL2110) were used. Both cell lines were maintained in ATCC recommended media. Cells were seeded at 5 × 10^3 cells/well into 96-well flat-bottom microtiter plates in which peptides that had been pre-diluted with cytokines (1 ng/mL for human IL-17A or 15 ng/mL for mouse IL-17A) in culture medium. Cells were incubated at 37 °C for 16–24 hrs, and supernatants were collected and analyzed by ELISA for either human CXCL1/GRO-α (R&D Systems DY275) or mouse CXCL1/KC (R&D Systems DY453).\nFigure S4. Inhibition of IL-17A induced murine keratinocyte-derived cytokine (KC). MLE-12 mouse epithelial cellswere cultured in the presence of IL-17A […]\nwhich time cell culture were removed for analysis of KCproduction.Data are mean and error bars of +/-standard deviation of duplicatedmeasurements […]\n(1 picture or pasted object on this page, not shown here)"}, "human IL-17A [1]": {"biological_target": "T2, human IL-17A (Homo sapiens, UniProt Q16552)", "T2 construct": "host or cells: added to BJ human fibroblasts (ATCC CRL2522)", "T2 sequence (Q16552 24-155)": "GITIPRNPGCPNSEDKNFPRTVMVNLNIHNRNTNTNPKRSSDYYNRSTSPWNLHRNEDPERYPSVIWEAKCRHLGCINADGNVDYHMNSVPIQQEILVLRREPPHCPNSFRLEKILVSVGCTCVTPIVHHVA", "experiment": "BJ human fibroblast cell assay, IL-17A stimulated GRO-α production", "type": "cell-based", "settings": "BJ human fibroblast cells, 1 ng/ml human IL-17A", "description": "For inhibitor screen, human BJ fibroblast cells (ATCC CRL2522) (American Type Culture Collection, VA) were used. For mouse cell based assay MLE-12 mouse epithelial cells (ATCC CRL2110) were used. Both cell lines were maintained in ATCC recommended media."}, "human IL-17A [2]": {"biological_target": "T3, human IL-17A (human, UniProt Q16552 24-155)", "T3 sequence (Q16552 24-155)": "as above"}, "human IL-17A [3]": {"biological_target": "T3, human IL-17A", "experiment": "cell-based or functional assay"}, "[4]": {"biological_target": "T4, biotinylated recombinant human IL-17A (rhIL-17, R&D Systems #317-ILB) (human, UniProt Q16552 24-155, biotinylated)", "T4 construct": "IL-17A, human, recombinant; also called Biotinylated IL-17A; source: bought: R&D Systems", "T4 sequence (Q16552 24-155)": "as above", "settings": "both partners purified"}}, "note": "Like-named read-outs stand apart in the source and are kept apart here. *1 amine or outer side, *2 acyl side, *3 side chain or, on linkers, in order; H or OH if unused. Where a SMILES comes first, the peptide text is derived from it. Bridges are numbered along the chain shown (N, C = ends). Roman numbers before positions name the chains, in order. Where no end group is shown, it is not given here. [ ]: non-standard residue; d: D form. The star is where a group is joined. X1 = O=C(CCOCCOCCOCCOCCOCCOCCOCCOCCOCCOCCOCCOCCOCCOCCOCCOCCOCCOCCOCCOCCOCCC(=O)[*:2])[*:1]; X2 = CCNC(=O)CCOCCOCCOCCOCCOCCOCCOCCOCCOCCOCCOCCOCCOCCOCCOCCOCCOCCOCCOCCOCCOCCC(=O)*; CO(CH2CH2O)5CH2CH2CO = O=C(CCOCCOCCOCCOCCOCCC(=O)[*:2])[*:1]; Lys(Me2) = CN(C)CCCC[C@H](N)C(=O)O", "data": [{"molecule": "Ac-IHVTIPADLWDWINK-NH2 [Compound 30]", "values": [{"measurement": "IC50", "setting": "murine IL-17A", "result": "> 1000", "unit": "nM"}]}, {"molecule": "CC[C@H](C)[C@H](NC(C)=O)C(=O)N[C@H](C(=O)N[C@H](C(=O)N[C@H](C(=O)N[C@H](C(=O)N1CCC[C@H]1C(=O)N[C@@H](C)C(=O)N[C@@H](CC(=O)O)C(=O)N[C@@H](CC(C)C)C(=O)N[C@@H](Cc1c[nH]c2ccccc12)C(=O)N[C@@H](CC(=O)O)C(=O)N[C@@H](Cc1c[nH]c2ccccc12)C(=O)N[C@H](C(=O)N[C@@H](CCCCNC(=O)CCOCCOCCOCCOCCOCCOCCOCCOCCOCCOCCOCCOCCOCCOCCOCCOCCOCCOCCOCCOCCOCCC(=O)NCCCC[C@H](NC(=O)[C@@H](NC(=O)[C@H](Cc1c[nH]c2ccccc12)NC(=O)[C@H](CC(=O)O)NC(=O)[C@H](Cc1c[nH]c2ccccc12)NC(=O)[C@H](CC(C)C)NC(=O)[C@H](CC(=O)O)NC(=O)[C@H](C)NC(=O)[C@@H]1CCCN1C(=O)[C@@H](NC(=O)[C@@H](NC(=O)[C@@H](NC(=O)[C@@H](NC(=O)[C@@H](NC(C)=O)[C@@H](C)CC)[C@@H](C)O)C(C)C)[C@@H](C)O)[C@@H](C)CC)[C@@H](C)CC)C(=O)N[C@@H](CCCCN(C)C)C(N)=O)C(=O)N[C@@H](CCCCN(C)C)C(N)=O)[C@@H](C)CC)[C@@H](C)CC)[C@@H](C)O)C(C)C)[C@@H](C)O", "note": "[Compound 45] (I: Ac-ITVTIPADLWDWIK[Lys(Me2)]-NH2 / II: Ac-ITVTIPADLWDWIK[Lys(Me2)]-NH2; linker I:14-II:14 via X1)", "values": [{"measurement": "IC50", "setting": "murine IL-17A; MLE-12 cells, 15 ng/ml murine IL-17A, KC production, read-out: IC50, murine IL-17A", "result": 41, "unit": "nM"}, {"measurement": "IC50", "setting": "human IL-17A [1]", "result": 0.1, "unit": "nM"}]}, {"molecule": "CCNC(=O)CCOCCOCCOCCOCCOCCOCCOCCOCCOCCOCCOCCOCCOCCOCCOCCOCCOCCOCCOCCOCCOCCC(=O)NCCCC[C@H](NC(=O)[C@@H](NC(=O)[C@H](Cc1c[nH]c2ccccc12)NC(=O)[C@H](CC(=O)O)NC(=O)[C@H](Cc1c[nH]c2ccccc12)NC(=O)[C@H](CC(C)C)NC(=O)[C@H](CC(=O)O)NC(=O)[C@H](C)NC(=O)[C@@H]1CCCN1C(=O)[C@@H](NC(=O)[C@@H](NC(=O)[C@@H](NC(=O)[C@@H](NC(=O)[C@@H](NC(C)=O)[C@@H](C)CC)[C@@H](C)O)C(C)C)[C@@H](C)O)[C@@H](C)CC)[C@@H](C)CC)C(=O)N[C@@H](CCCCN(C)C)C(N)=O", "note": "[Compound 48] (Ac-ITVTIPADLWDWIK(X2)[Lys(Me2)]-NH2)", "values": [{"measurement": "IC50", "setting": "human IL-17A [1]", "result": 21, "unit": "nM"}]}, {"molecule": "CC[C@H](C)[C@H](NC(=O)CCOCCOCCOCCOCCOCCOCCOCCOCCOCCOCCOCCOCCOCCOCCOCCOCCOCCOCCOCCOCCOCCC(=O)N[C@H](C(=O)N[C@H](C(=O)N[C@H](C(=O)N[C@H](C(=O)N[C@H](C(=O)N1CCC[C@H]1C(=O)N[C@@H](C)C(=O)N[C@@H](CC(=O)O)C(=O)N[C@@H](CC(C)C)C(=O)N[C@@H](Cc1c[nH]c2ccccc12)C(=O)N[C@@H](CC(=O)O)C(=O)N[C@@H](Cc1c[nH]c2ccccc12)C(=O)N[C@H](C(=O)N[C@@H](CC(N)=O)C(=O)N[C@@H](CCCCN(C)C)C(N)=O)[C@@H](C)CC)[C@@H](C)CC)[C@@H](C)O)C(C)C)[C@@H](C)O)[C@@H](C)CC)C(=O)N[C@H](C(=O)N[C@H](C(=O)N[C@H](C(=O)N[C@H](C(=O)N1CCC[C@H]1C(=O)N[C@@H](C)C(=O)N[C@@H](CC(=O)O)C(=O)N[C@@H](CC(C)C)C(=O)N[C@@H](Cc1c[nH]c2ccccc12)C(=O)N[C@@H](CC(=O)O)C(=O)N[C@@H](Cc1c[nH]c2ccccc12)C(=O)N[C@H](C(=O)N[C@@H](CC(N)=O)C(=O)N[C@@H](CCCCN(C)C)C(N)=O)[C@@H](C)CC)[C@@H](C)CC)[C@@H](C)O)C(C)C)[C@@H](C)O", "note": "[Compound 39] (I: ITVTIPADLWDWIN[Lys(Me2)]-NH2 / II: ITVTIPADLWDWIN[Lys(Me2)]-NH2; linker I:N-II:N via X1)", "values": [{"measurement": "IC50", "setting": "human IL-17A [1]", "result": 0.74, "unit": "nM"}]}, {"molecule": "CC[C@H](C)[C@H](NC(C)=O)C(=O)N[C@H](C(=O)N[C@H](C(=O)N[C@H](C(=O)N[C@H](C(=O)N1CCC[C@H]1C(=O)N[C@@H](C)C(=O)N[C@@H](CC(=O)O)C(=O)N[C@@H](CC(C)C)C(=O)N[C@@H](Cc1c[nH]c2ccccc12)C(=O)N[C@@H](CC(=O)O)C(=O)N[C@@H](Cc1c[nH]c2ccccc12)C(=O)N[C@H](C(=O)N[C@@H](CC(N)=O)C(=O)N[C@@H](CCCCN(C)C)C(=O)N[C@@H](CCCCNC(=O)CCOCCOCCOCCOCCOCCOCCOCCOCCOCCOCCOCCOCCOCCOCCOCCOCCOCCOCCOCCOCCOCCC(=O)NCCCC[C@H](NC(=O)[C@H](CCCCN(C)C)NC(=O)[C@H](CC(N)=O)NC(=O)[C@@H](NC(=O)[C@H](Cc1c[nH]c2ccccc12)NC(=O)[C@H](CC(=O)O)NC(=O)[C@H](Cc1c[nH]c2ccccc12)NC(=O)[C@H](CC(C)C)NC(=O)[C@H](CC(=O)O)NC(=O)[C@H](C)NC(=O)[C@@H]1CCCN1C(=O)[C@@H](NC(=O)[C@@H](NC(=O)[C@@H](NC(=O)[C@@H](NC(=O)[C@@H](NC(C)=O)[C@@H](C)CC)[C@@H](C)O)C(C)C)[C@@H](C)O)[C@@H](C)CC)[C@@H](C)CC)C(N)=O)C(N)=O)[C@@H](C)CC)[C@@H](C)CC)[C@@H](C)O)C(C)C)[C@@H](C)O", "note": "[Compound 47] (I: Ac-ITVTIPADLWDWIN[Lys(Me2)]K-NH2 / II: Ac-ITVTIPADLWDWIN[Lys(Me2)]K-NH2; linker I:16-II:16 via X1)", "values": [{"measurement": "IC50", "setting": "human IL-17A [1]", "result": 16, "unit": "nM"}]}, {"molecule": "CC[C@H](C)[C@H](NC(C)=O)C(=O)N[C@H](C(=O)N[C@H](C(=O)N[C@@H](CCCCNC(=O)CCOCCOCCOCCOCCOCCC(=O)NCCCC[C@H](NC(=O)[C@@H](NC(=O)[C@@H](NC(=O)[C@@H](NC(C)=O)[C@@H](C)CC)[C@@H](C)O)C(C)C)C(=O)N[C@H](C(=O)N1CCC[C@H]1C(=O)N[C@@H](C)C(=O)N[C@@H](CC(=O)O)C(=O)N[C@@H](CC(C)C)C(=O)N[C@@H](Cc1c[nH]c2ccccc12)C(=O)N[C@@H](CC(=O)O)C(=O)N[C@@H](Cc1c[nH]c2ccccc12)C(=O)N[C@H](C(=O)N[C@@H](CC(N)=O)C(=O)N[C@@H](CCCCN(C)C)C(N)=O)[C@@H](C)CC)[C@@H](C)CC)C(=O)N[C@H](C(=O)N1CCC[C@H]1C(=O)N[C@@H](C)C(=O)N[C@@H](CC(=O)O)C(=O)N[C@@H](CC(C)C)C(=O)N[C@@H](Cc1c[nH]c2ccccc12)C(=O)N[C@@H](CC(=O)O)C(=O)N[C@@H](Cc1c[nH]c2ccccc12)C(=O)N[C@H](C(=O)N[C@@H](CC(N)=O)C(=O)N[C@@H](CCCCN(C)C)C(N)=O)[C@@H](C)CC)[C@@H](C)CC)C(C)C)[C@@H](C)O", "note": "[Compound 40] (I: Ac-ITVKIPADLWDWIN[Lys(Me2)]-NH2 / II: Ac-ITVKIPADLWDWIN[Lys(Me2)]-NH2; linker I:4-II:4 via CO(CH2CH2O)5CH2CH2CO)", "values": [{"measurement": "IC50", "setting": "human IL-17A [1]", "result": 3370, "unit": "nM"}]}, {"molecule": "Ac-IHVTIPADLWDWI (not fully specified (C-terminus))", "note": "[peptide 36]", "values": [{"measurement": "Cell IC50: inhibition of IL-17A signaling in BJ human fibroblast cells stimulated with 1 ng/ml IL-17A", "setting": "human IL-17A [2]", "result": 183, "unit": "nM"}]}, {"molecule": "Ac-IVVTMPADLWDWIKA (not fully specified (C-terminus), 15-mer linear peptide from phage display; made on Rink resin; a C-terminal amide is surmised; also called phage peptide 1; source: synthetic peptide)", "note": "[peptide 1]", "values": [{"measurement": "Cell IC50: inhibition of GRO-α production in BJ human fibroblast cells stimulated with 1 ng/ml IL-17A", "setting": "human IL-17A [3]", "result": 370, "unit": "nM"}, {"measurement": "IC50", "setting": "[4]", "result": 80, "unit": "nM"}]}, {"molecule": "Ac-IVVTIPADLWDWIRA (not fully specified (C-terminus), analogue of peptide 2, I at position 5; made on Rink resin; a C-terminal amide is surmised; source: synthetic peptide)", "note": "[peptide 24]", "values": [{"measurement": "Cell IC50: inhibition of GRO-α production in BJ human fibroblast cells stimulated with 1 ng/ml IL-17A", "setting": "human IL-17A [3]", "result": 18, "unit": "nM"}, {"measurement": "IC50", "setting": "[4]", "result": 3, "unit": "nM"}]}]}
